{"source": "patent US10577395B2", "about": "(priority 2014, dated 2020)", "key": {"[1]": {"system": "vancomycin-resistant Enterococcus faecalis (VanA VRE, BM4166)", "conditions": "E. faecalis (BM4166, VanA VRE); earlier studies; cited from earlier work"}, "[2]": {"conditions": "cited from earlier work; for ligand, Ka (M^−1), 11, Y = NH: association constant, ligand 11 (Y = NH)"}, "[3]": {"conditions": "association constant, ligand 12 (Y = O); cited from earlier work"}, "[4]": {"test": "Binding of model ligand 11 (Y = NH), association constant Ka", "conditions": "ratio of Ka for ligand 11 to ligand 12"}, "[5]": {"system": "vancomycin-resistant Enterococcus faecalis (VanA VRE, BM4166)", "test": "microbe, parasite or virus in culture", "format": "cell-based", "conditions": "E. faecalis (BM4166, VanA VRE); tested herein alongside Compounds 1-6", "description": "Assays were carried out following the methods of Clinical and Laboratory Standards Institute; Methods for Dilution Antimicrobial Susceptibility Tests for Bacteria That Grow Aerobically; Approved Standard, […].; CLSI document M07-A8; Clinical and Laboratory Standards Institute: Wayne, Pa., 2009.\nThis diluted bacterial stock solution was then inoculated into a well of a V-shaped 96-well glass coated microtiter plate, supplemented with serial diluted aliquots of the antibiotic solution DMSO (4 μL), to achieve a total assay volume of 0.1 mL. The plate was then incubated at 37° C. for 18 hours, after which minimal inhibitory concentrations (MICs) were determined by monitoring the cell growth (observed as a pellet) in the wells. The lowest concentration of antibiotic (in μg/mL) capable of eliminating the cell growth in the wells is reported as the MIC."}}, "note": "Marks after values point to notes of the source that are not given here."}
{"compound": "CN[C@H](CC(C)C)C(=O)N[C@H]1C(=O)N[C@@H](CC(N)=O)C(=O)N[C@H]2C(=O)N[C@H]3C(=O)N[C@H](C(=O)N[C@H](C(=O)O)c4cc(O)cc(O)c4-c4cc3ccc4O)[C@H](O)c3ccc(c(Cl)c3)Oc3cc2cc(c3O)Oc2ccc(cc2Cl)[C@H]1O", "note": "[Compound 7, vancomycin aglycon]", "values": [{"measurement": "VanA MIC", "setting": "[1]", "result": 640, "unit": "µg/mL"}, {"measurement": "ligand, Ka (M^−1), 11, Y = NH", "setting": "[2]", "result": 170000, "unit": "M⁻¹"}, {"measurement": "ligand, Ka (M^−1), 12, Y = O", "setting": "[3]", "result": 120, "unit": "M⁻¹"}, {"measurement": "Ka(11/12)", "setting": "[4]", "result": 1400}]}
{"compound": "CN[C@H](CC(C)C)C(=O)N[C@H]1C(=O)N[C@@H](CC(N)=O)C(=O)N[C@H]2C(=S)NC3C(=O)N[C@H](C(=O)N[C@H](C(=O)O)c4cc(O)cc(O)c4-c4cc3ccc4O)[C@H](O)c3ccc(c(Cl)c3)Oc3cc2cc(c3O)Oc2ccc(cc2Cl)[C@H]1O", "note": "[Compound 8, [Ψ[C(═S)NH]Tpg^4]vancomycin aglycon]", "values": [{"measurement": "VanA MIC", "setting": "[1]", "result": ">640", "unit": "µg/mL"}, {"measurement": "ligand, Ka (M^−1), 11, Y = NH", "setting": "[2]", "result": 170, "unit": "M⁻¹"}, {"measurement": "ligand, Ka (M^−1), 12, Y = O", "setting": "[3]", "result": 11, "unit": "M⁻¹"}]}
{"compound": "CN[C@H](CC(C)C)C(=O)N[C@H]1C(=O)N[C@@H](CC(N)=O)C(=O)N[C@H]2C(=N)NC3C(=O)N[C@H](C(=O)N[C@H](C(=O)O)c4cc(O)cc(O)c4-c4cc3ccc4O)[C@H](O)c3ccc(c(Cl)c3)Oc3cc2cc(c3O)Oc2ccc(cc2Cl)[C@H]1O", "note": "[Compound 9, [Ψ[C(═NH)NH]Tpg^4]vancomycin aglycon]", "values": [{"measurement": "VanA MIC, μg/mL", "setting": "[5]", "result": "1^b μg/mL"}, {"measurement": "binding affinity for both target ligands relative to vancomycin aglycon with D-Ala-D-Ala", "setting": "[2]; D-Ala-D-Ala and D-Ala-D-Lac", "result": "≤ 2", "unit": "fold"}, {"measurement": "ligand, Ka (M^−1), 11, Y = NH", "setting": "[2]", "result": 73000, "unit": "M⁻¹"}, {"measurement": "ligand, Ka (M^−1), 12, Y = O", "setting": "[3]", "result": 69000, "unit": "M⁻¹"}, {"measurement": "Ka(11/12)", "setting": "[4]", "result": 1.05}]}
{"compound": "[Ψ[CH2NH]Tpg^4]vancomycin aglycon [Compound 10]", "values": [{"measurement": "VanA MIC", "setting": "[1]", "result": 31, "unit": "µg/mL"}, {"measurement": "ligand, Ka (M^−1), 11, Y = NH", "setting": "[2]", "result": 4800, "unit": "M⁻¹"}, {"measurement": "ligand, Ka (M^−1), 12, Y = O", "setting": "[3]", "result": 5200, "unit": "M⁻¹"}, {"measurement": "Ka(11/12)", "setting": "[4]", "result": 0.9}]}
